Measured values from US11766430B2, “Methods of using a phenoxypropylamine compound to treat pain” (Minerva Neurosciences, Inc., priority 2018, dated 2023).
Where “and” joins values, the source holds several entries; their conditions need not be identical. Equal entries are not always repeated.

Test system: carrageenan-induced mechanical hyperalgesia in rats
Assay: Carrageenan-induced mechanical hyperalgesia, paw pressure test, time course to 240 min (Example 2)
Type: in vivo, male Sprague-Dawley rats
Conditions: for Effect on injured paw withdrawal threshold vs vehicle-treated group (in words): time course 30-240 min
Method: In this model, inflammation is induced by intraplantar injection of carrageenan (2%) into the right hindpaw of the rat. Three hours later, reaction thresholds are measured using the paw pressure test. Pressure is gradually applied to both hind paws (inflamed and control) of the rat, and reaction thresholds are determined as the pressure (g) required to elicit paw withdrawal or vocalization. Morphine (3 mg/kg, s.c.) was used as a positive control.
The experiments in this study used fifty (50) male Sprague-Dawley rats (SPF status, Janvier, France), each weighing 204-260 grams. The rats were housed in a temperature (20-24° C.) and relative humidity (45%-65%) controlled room and acclimated to an artificial day/night cycle of 12 hours light (6.30 a.m. to 6.30 p.m.)/12 hours darkness. Rats had free access to sterilized tap water and were fed ad libitum with pelleted complete diet (reference A04, S.A.F.E.). Rats were housed 4 per cage (cages Type E) and were acclimated for a period of at least 5 days before any testing. Each rat was identified by tail markings. Based on the SPF status of the animal facilities, there is no reason to expect that contaminants were present in the food, water or bedding, at levels capable of interfering with the results of the tests.
Pain Test: Static mechanical hyperalgesia was assessed using the Paw Pressure test or Randall & Selitto test (Randall, L. O. and Selitto, J. J., A method for measurement of analgesic activity on inflamed tissue, Arch Int Pharmacodyn, 1957(111): 409-419). This test requires the application of an increasing pressure on the hind paws between a flat surface and a blunt pointer. This test is usually used with animals with one hind paw inflamed by an injection or injured by ligation, and one normal hind paw, to evaluate drugs for analgesic action. The apparatus exerts a steadily increasing force and reaction threshold is determined as the pressure (g) required to elicit paw withdrawal and/or vocalization. In the experiment, animals were gently handled by the experimenter and static mechanical hyperalgesia was assessed. Each reaction threshold measurement was done for both hind paws.
Five (5) experimental groups of 10 rats each were used. Each group was first injected with of 100 μL of a 2% carrageenan suspension in the plantar aspect of the right hindpaw. Three hours after carrageenan injection, paw withdrawal threshold was measured using the paw pressure test (Baseline). The 5 groups were then administered the following: • Group 1: vehicle (0.5% HPMC), i.p., solution (negative control); • Group 2: MIN-117 (0.01 mg/kg, i.p.) in 0.5% HPMC, suspension; • Group 3: MIN-117 (0.1 mg/kg, i.p.) in 0.5% HPMC, suspension; • Group 4: MIN-117 (1 mg/kg, i.p.) in 0.5% HPMC, suspension; and • Group 5: morphine (3 mg/kg, s.c.) in 0.9% NaCl, solution (positive control).
After administering vehicle, MIN-117, or morphine, the antihyperalgesic effect of the compounds was evaluated using the paw pressure test at 0 min. (T0), 30 min., 60 min., 120 min., and 240 min.
Vehicle and MIN-117 were administered intraperitoneally at 10 mL/kg. Morphine was subcutaneously administered at 5 mL/kg. Dosing and testing were performed in a random order by a blinded experimenter except for the morphine-treated group. Doses were expressed in terms of free active substance. Rats were sacrificed at the end of the experiment by CO2 inhalation pending subsequent removal by a certified company.
Results were assessed as: the paw withdrawal threshold (mean±s.e.m.) in grams of contact pressure for each group, calculated from individual paw withdrawal thresholds; the percentage of variation of the paw withdrawal threshold calculated from the mean value of the vehicle-treated group; and/or the percentage of activity. To determine a statistical effect of the test substance and the reference substance, data were analyzed by a non-parametrical test. The significance level was p<0.05.

[1] = 1 mg/kg i.p., T0 (baseline before dosing)
[2] = 1 mg/kg i.p., T0 (baseline before dosing), hydrochloride
[3] = 1 mg/kg i.p., T0 + 30 min, hydrochloride

Compound: Cc1nnc(-c2cc3c(OC[C@@H](O)CN4CCC(c5ccc(Cl)c(Cl)c5)CC4)cccc3o2)o1.Cl [MIN-117, (2S)-1-(4-(3,4-dichlorophenyl)piperidin-1-yl)-3-((2-(5-methyl-1,3,4-oxadiazol-2-yl)benzofuran-4-yl)oxy)propan-2-ol hydrochloride]
- Nociceptive threshold, injured paw (mean ± s.e.m.) (0.1 mg/kg i.p., T0 (baseline before dosing), hydrochloride): 178 ± 5.5 g and 178 g
- % activity, injured paw (0.1 mg/kg i.p., T0 + 30 min): 3%
- % variation vs control paw, injured paw (0.1 mg/kg i.p., T0 + 30 min): −48%
- % variation vs pre-drug threshold, injured paw (0.1 mg/kg i.p., T0 + 30 min): 3%
- % variation vs vehicle-treated group, injured paw (0.1 mg/kg i.p., T0 + 30 min): 3%
- Nociceptive threshold, control paw (mean ± s.e.m.) (0.1 mg/kg i.p., T0 + 30 min): 354 g
- Nociceptive threshold, injured paw (mean ± s.e.m.) (0.1 mg/kg i.p., T0 + 30 min, hydrochloride): 184 ± 5.0 g and 184 g
- % activity, injured paw (0.1 mg/kg i.p., T0 + 60 min): −5%
- % variation vs control paw, injured paw (0.1 mg/kg i.p., T0 + 60 min): −48%
- % variation vs pre-drug threshold, injured paw (0.1 mg/kg i.p., T0 + 60 min): 1%
- % variation vs vehicle-treated group, injured paw (0.1 mg/kg i.p., T0 + 60 min): −4%
- Nociceptive threshold, control paw (mean ± s.e.m.) (0.1 mg/kg i.p., T0 + 60 min): 348 g
- Nociceptive threshold, injured paw (mean ± s.e.m.) (0.1 mg/kg i.p., T0 + 60 min, hydrochloride): 180 ± 7.9 g and 180 g
- % activity, injured paw (0.1 mg/kg i.p., T0 + 120 min): −5%
- % variation vs control paw, injured paw (0.1 mg/kg i.p., T0 + 120 min): −50%
- % variation vs pre-drug threshold, injured paw (0.1 mg/kg i.p., T0 + 120 min): 0%
- % variation vs vehicle-treated group, injured paw (0.1 mg/kg i.p., T0 + 120 min): −4%
- Nociceptive threshold, control paw (mean ± s.e.m.) (0.1 mg/kg i.p., T0 + 120 min): 354 g
- Nociceptive threshold, injured paw (mean ± s.e.m.) (0.1 mg/kg i.p., T0 + 120 min, hydrochloride): 178 ± 7.6 g and 178 g
- % activity, injured paw (0.1 mg/kg i.p., T0 + 240 min): −4%
- % variation vs control paw, injured paw (0.1 mg/kg i.p., T0 + 240 min): −49%
- % variation vs pre-drug threshold, injured paw (0.1 mg/kg i.p., T0 + 240 min): 1%
- % variation vs vehicle-treated group, injured paw (0.1 mg/kg i.p., T0 + 240 min): −3%
- Nociceptive threshold, control paw (mean ± s.e.m.) (0.1 mg/kg i.p., T0 + 240 min): 350 g
- Nociceptive threshold, injured paw (mean ± s.e.m.) (0.1 mg/kg i.p., T0 + 240 min, hydrochloride): 180 ± 8.4 g and 180 g
- Effect on injured paw withdrawal threshold vs vehicle-treated group (in words) (0.1 mg/kg i.p.): did not induce any significant increase
- % activity, injured paw [1]: 3%
- % variation vs control paw, injured paw [1]: −50%
- % variation vs vehicle-treated group, injured paw [1]: 3%
- Nociceptive threshold, control paw (mean ± s.e.m.) [2]: 374.0 ± 12.7 g and 374 g
- Nociceptive threshold, injured paw (mean ± s.e.m.) [2]: 188 ± 9.0 g and 188 g
- % activity, injured paw (1 mg/kg i.p., T0 + 30 min): 1%
- % variation vs control paw, injured paw (1 mg/kg i.p., T0 + 30 min): −49%
- % variation vs vehicle-treated group, injured paw (1 mg/kg i.p., T0 + 30 min): 1%
- Nociceptive threshold, control paw (mean ± s.e.m.) (1 mg/kg i.p., T0 + 30 min): 356 g
- % variation vs pre-drug threshold, injured paw [3]: −4% and 4%
- Nociceptive threshold, injured paw (mean ± s.e.m.) [3]: 180 ± 7.3 g and 180 g
- % activity, injured paw (1 mg/kg i.p., T0 + 60 min): 14%
- % variation vs control paw, injured paw (1 mg/kg i.p., T0 + 60 min): −45%
- % variation vs pre-drug threshold, injured paw (1 mg/kg i.p., T0 + 60 min): 13%
- % variation vs vehicle-treated group, injured paw (1 mg/kg i.p., T0 + 60 min): 13%
- Nociceptive threshold, control paw (mean ± s.e.m.) (1 mg/kg i.p., T0 + 60 min): 380 g
- Nociceptive threshold, injured paw (mean ± s.e.m.) (1 mg/kg i.p., T0 + 60 min, hydrochloride): 212 ± 12.4 g and 212 g
- % activity, injured paw (1 mg/kg i.p., T0 + 120 min): 29%
- % variation vs control paw, injured paw (1 mg/kg i.p., T0 + 120 min): −41%
- % variation vs pre-drug threshold, injured paw (1 mg/kg i.p., T0 + 120 min): 23%
- Nociceptive threshold, control paw (mean ± s.e.m.) (1 mg/kg i.p., T0 + 120 min): 392 g
- Nociceptive threshold, injured paw (mean ± s.e.m.) (1 mg/kg i.p., T0 + 120 min, hydrochloride): 232 ± 7.4 g and 232 g
- % activity, injured paw (1 mg/kg i.p., T0 + 240 min): 1%
- % variation vs control paw, injured paw (1 mg/kg i.p., T0 + 240 min): −49%
- % variation vs pre-drug threshold, injured paw (1 mg/kg i.p., T0 + 240 min): 0%
- % variation vs vehicle-treated group, injured paw (1 mg/kg i.p., T0 + 240 min): 1%
- Nociceptive threshold, control paw (mean ± s.e.m.) (1 mg/kg i.p., T0 + 240 min): 370 g
- Nociceptive threshold, injured paw (mean ± s.e.m.) (1 mg/kg i.p., T0 + 240 min, hydrochloride): 188 ± 6.1 g and 188 g
- Effect on injured paw withdrawal threshold vs vehicle-treated group (in words) (1 mg/kg i.p.): slight increase in the nociceptive threshold becoming significant 120 min. after injection
